In ChEMBL document CHEMBL3507680, “University of Dundee, Gates Library screen for HepG2 cell viability” one finds cytotoxicity data, which are given here for 102 molecules.

This data set in a line: Human HepG2 cell viability assay in 384 well format. The following applies: HepG2 cells, read-out: Inhibition. Set-up: dose 125 nL, time 70.5 hour; cytotoxicity at 70.5 h: concentration not given beside the values. Format: toxicity, cell-based.
As for `CO[C@H]1C[C@@H]2CN(C(=O)c3cc4cccc(F)c4[nH]3)C[C@@H]2C1`, the cytotoxicity at 70.5 h was -6.67%.
With `CN1CCC(CCc2ccnc(NC(=O)c3ccccn3)c2)CC1` the figure was 15.4%; with `CC(C)N1CCCCC1c1cc(CO)[nH]n1` (configuration not stated), -3.81%.
As for `CN1CCN(C(=O)CCCc2ccccc2)CC(O)(Cn2cccn2)C1` (configuration not stated), the figure is -2.15%.
With `CC(C)n1nccc1C(=O)N1CCC(c2nnsc2S(C)(=O)=O)CC1` the figure was -6.33%; with `O=C(Cc1ccn[nH]1)N1CCc2cc(Br)sc2C1`, -6.46%; with `Cc1noc(C)c1CNC1CCN(c2ccccc2OC(F)F)C1` (configuration not stated), -3.18%.
In the case of `CCOc1ccc(N(CCC#N)C(=O)c2ccc(OC)nc2)cc1`, the cytotoxicity at 70.5 h was 1.85%.
With `CC(NC(=O)NC1CCN(Cc2ccccn2)CC1)c1ccco1` (configuration not stated) the figure was -1.3%; with `Cc1ccc(C(C)NC(=O)N2CCN(S(C)(=O)=O)CC2)o1` (configuration not stated), 1.52%.
Turning to `CC(NC(=O)NC1CCN(Cc2ccccc2)CC1)c1nncn1C` (configuration not stated), the cytotoxicity at 70.5 h was determined as 2.2%.
As for `CC(C)CN1CCC(C(=O)NCCNC(=O)c2ccoc2)CC1`, the figure is -1.22%.
With `CC(C)CN1CCC(C(=O)NCCNC(=O)c2ccccc2)CC1` the figure was -4.76%; with `CC(C)NC(=O)CCNC(=O)c1c(Br)c2ccccc2n1C`, -0.338%.
In the case of `N#Cc1cnn(C(=O)CCCOc2ccccc2Cl)c1N`, the cytotoxicity at 70.5 h was found to be 9.75%.
As for `COCc1cccc(CNc2cnn(C(C)(C)C)c(=O)c2Cl)c1`, the figure is 41%.
Regarding `Cc1nc(CC(=O)N2CCN(C)CC2c2ccccc2)cs1` (configuration not stated), the cytotoxicity at 70.5 h was -0.955%.
As for `COc1ccccc1OCC(=O)n1ncc(C#N)c1N`, the figure is 9.32%; as for `COCc1ccc(CNc2cnn(C(C)(C)C)c(=O)c2Cl)cc1`, 19.8%.
With `CC(=O)c1ccc(N2CCN(C(=O)NC(C)c3ccc(C)o3)CC2)cc1` (configuration not stated) the figure was -3.78%.
With `O=S(=O)(Nc1ccc(N2CCOCC2)cn1)c1ccc(F)cc1` the figure was 9.02%.
For `CC(NC(C)(C)CN)c1ccccc1` (configuration not stated), the cytotoxicity at 70.5 h was -0.00601%.
In the case of `Cc1ccc(CNC(C)c2cc(F)ccc2N2CCN(C)CC2)o1` (configuration not stated), the cytotoxicity at 70.5 h was 0.758%.
As for `Cc1ccc(C)c(SCC(=O)Nc2cccc(C(=O)N(C)C)n2)c1`, the figure is 11.9%.
With `Cc1ccc(C)c(CC(=O)Nc2cccc(C(=O)N(C)C)n2)c1` the figure was 5.58%.
As for `Cc1cc(F)cc2c(NCC(C)(C)C(N)=O)c(C#N)cnc12`, the figure is 11.6%.
On to `CCS(=O)(=O)NCCNc1c(C#N)cnc2c(C)cc(F)cc12`, for which the cytotoxicity at 70.5 h was determined as 2.54%.
With `CC(C)(C)NC(=O)N1CCC(NC(=O)Cc2cccnc2)CC1` the figure was -3.09%; with `CCc1cccc(CC(=O)NC2CCN(C(=O)NC(C)(C)C)CC2)c1`, 1.52%.
As for `N#CCCCS(=O)(=O)NC(=O)c1cccc(Cl)c1F`, the figure is -2.7%; as for `Cc1csc(N2CCCN(C(=O)c3cccs3)CC2)n1`, 3.15%.
With `COc1cc(CC(=O)Nc2cccc(C(=O)N(C)C)n2)ccc1C` the figure was 46.5%; with `CCOc1ccc(N(CCC#N)C(=O)c2ccc(SC)nc2)cc1`, -4%; with `CC(NC(=O)NC1CCN(Cc2ccccn2)CC1)c1nncn1C` (configuration not stated), -2%.
With `COc1ccc(N(C)C(=O)C2CN(C)CCO2)cc1F` (configuration not stated), the cytotoxicity at 70.5 h was -12.3%.
With `Cn1ccnc1CN1CCCCC1c1nc(-c2ccccc2)no1` (configuration not stated) the figure was -10.6%; with `COc1ccc2c(c1)CCCN2C(=O)c1cccc(N(C)C)c1`, 3.26%.
As for `Cc1cc(C2CCCN2C(=O)COc2ccc(CC#N)cc2)no1` (configuration not stated), the figure is -7.35%; as for `O=C(Nc1c(N2CCCC2)cccc1N1CCCC1)c1ccccn1`, -12.8%; as for `O=C1OCCN1CCSc1nnnn1C1CCOCC1`, -17.6%.
With `COc1cc(Br)c(CNC(C)c2nnc3n2CCC3)cc1OC` (configuration not stated) the figure was 10.6%; with `O=C(C[S+]([O-])Cc1csc(C2CCCC2)n1)NC1CCCC1` (configuration not stated), -1.25%.
For `CC(C)(C)c1nccc(N2CCC(OCCN3CCCCC3)C2)n1` (configuration not stated), the cytotoxicity at 70.5 h is -6.69%.
With `CC(=O)N1CCCc2cc(Nc3nccn(C)c3=O)ccc21` the figure was -7.29%; with `Cn1ccnc(Nc2ccc3c(c2)CCN3C(=O)c2ccoc2)c1=O`, -10%.
Turning to `Cn1ccnc(Nc2ccc3c(c2)CCN3C(=O)c2cccnc2)c1=O`, the cytotoxicity at 70.5 h was -11.5%.
As for `CCOc1c(Br)cc(CNC(C)c2nnc3n2CCC3)cc1OC` (configuration not stated), the figure is -4.89%; as for `CC(C)S(=O)(=O)NC(=O)CC(c1ccccc1)C(F)(F)F` (configuration not stated), -9.01%.
With `CCc1nc(Cn2nc(COC)oc2=O)cs1` the figure was -9.78%; with `FC(F)(F)Cn1nnnc1SCCN1CCCCC1`, -7.69%.
As for `COc1ccc2c(c1)CC(NCc1cccc(CO)c1)CC2` (configuration not stated), the figure is -6.72%; as for `Cc1ccnc(N2CCC(OCCN3CCCCC3)C2)n1` (configuration not stated), -8.76%.
As for `c1cnc(N2CCC(OCCN3CCCCC3)C2)nc1` (configuration not stated), the cytotoxicity at 70.5 h was -10.2%.
As for `Cc1cc(C)nc(N2CCC(OCCN3CCCCC3)C2)n1` (configuration not stated), the figure is 8.57%; as for `CN(c1cccnc1N1CCCC1)S(=O)(=O)c1cnn(C)c1`, 5.43%; as for `CC(Cn1cccn1)NCC(=O)NC1CCOCC1` (configuration not stated), 6.94%.
As for `Cc1nn(C)c(C)c1NC(=O)CNC(c1ccc(F)cc1)C1CCC1` (configuration not stated), the figure is -7.04%; as for `CCCN(CC(=O)OC)C(=O)c1sc(C)nc1C`, -15.4%; as for `Cc1ccc2nc(CN(C)Cc3ccc(C)o3)cc(=O)n2c1`, -15%.
As for `Cc1ccc2nc(CN(Cc3ccc(C)o3)C(C)C)cc(=O)n2c1`, the figure is -11.5%.
In the case of `Cc1ccc2nc(CN(Cc3ccc(C#N)cc3)C(C)C)cc(=O)n2c1`, the cytotoxicity at 70.5 h worked out at 20.2%.
With `CN(CC(=O)Nc1cc(C(F)(F)F)c[nH]c1=O)Cc1ccccc1` the figure was -11.2%.
With `CN(C)C(CNS(=O)(=O)c1cnn(C)c1)c1cccc(F)c1` (configuration not stated) the figure was -1.66%; with `CCCC(NC(=O)c1ccccn1)c1nnc2ccccn12` (configuration not stated), -12.2%.
With `Cc1ncc2c(n1)CN(Cc1ncc(C(C)(C)C)o1)CC2` the figure was -13.9%.
For the molecule `CN(Cc1ccccn1)C(=O)Nc1cc(C(F)(F)F)c[nH]c1=O`, the cytotoxicity at 70.5 h is -1.8%.
With `Cc1cc(C)c(CNC(=O)N2CCCN(C(=O)C(C)C)CC2)c(C)c1` the figure was 15.9%; with `CCCC(=O)NCC(=O)Nc1cc(F)ccc1SCC(F)F`, 2.19%.
With `CC(C(=O)N(Cc1ccc(F)cc1)CC(F)(F)F)S(C)(=O)=O` (configuration not stated) the figure was -1.63%; with `COc1cc2c(nn1)CCN(Cc1ncc(C(C)(C)C)o1)C2`, -5.34%; with `CCc1ccsc1CNC(=O)CNC(=O)C(C)(C)C`, -7.92%.
As for `CCC(CO)NC(=O)Nc1cc(F)ccc1Br` (configuration not stated), the figure is -9.27%; as for `O=C1CCCN1CCCN1CCCC1Cn1cccn1` (configuration not stated), 8.99%.
In the case of `CCn1ccnc1CN1CCN(c2ccc3nnc(C)n3n2)CC1`, the cytotoxicity at 70.5 h is -8.35%.
With `COc1ccccc1NC(=O)CC(C)NCCc1sc(C)nc1C` (configuration not stated) the figure was 8.63%; with `CCc1c(NCc2ccncc2)cnn1CC(C)C`, -5.95%; with `COC(=O)CCCN(C)C(c1cccnc1)c1ccc(F)cc1F` (configuration not stated), 5.6%.
For `CCN(Cc1cnn(C)c1)S(=O)(=O)c1ccc(NC(C)=O)cc1`, the cytotoxicity at 70.5 h was 9.84%.
`O=C(CN1CCCc2cc(F)cc(F)c21)Nc1ccc(Br)cn1`: the cytotoxicity at 70.5 h is -3.51%.
As for `COc1cccc2c1N(CC(=O)Nc1ccc(Br)cn1)CCC2`, the figure is -3.62%.
As for `Cc1ccc(Cl)cc1NS(=O)(=O)c1cc(C(N)=O)n(C)c1`, the figure is -0.833%.
With `O=C(NCCNc1ncccn1)c1ccc(Cl)s1` the figure was -5.84%.
`CN(Cc1ccc(Cl)s1)C(=O)NCCN1CCCCCC1=O`: the cytotoxicity at 70.5 h is -3.32%.
With `COC(=O)C(C)(C)NC(=O)c1cnc(C(C)(C)C)s1` the figure was -1.58%; with `CC(C)(NC(=O)c1cnc(C(C)(C)C)s1)C(N)=O`, 28.5%; with `CC(C)c1ccc(O)c(C(=O)NCc2nncn2C)c1`, -6.12%.
As for `O=C(NCCN1CCCCCC1=O)NCc1ccc(Cl)s1`, the figure is 2.1%; as for `CC(Oc1ccc(F)cc1)C(=O)N(CC(N)=O)C1CCCC1` (configuration not stated), 0.347%.
With `COc1ccc(CNC(=O)CCn2cc(C)cn2)cc1C` the figure was 26.7%; with `CC(Oc1cccc(F)c1)C(=O)N(CC(N)=O)C1CCCC1` (configuration not stated), 0.47%.
Regarding `CN(CC(=O)NCC(O)c1cccc(F)c1)C(=O)OC(C)(C)C` (configuration not stated), the cytotoxicity at 70.5 h is -3.05%.
As for `CC(C)c1ccc(O)c(C(=O)NCc2cc[nH]n2)c1`, the figure is 20.8%; as for `Cc1ccc(CC(NC(=O)CCS(C)(=O)=O)c2ccccn2)cc1` (configuration not stated), 0.0206%; as for `CNC(=O)c1cc(NC(=O)NC(C)CCc2cccn2C)ccc1F` (configuration not stated), 22.7%.
Turning to `CNC(=O)c1cccc(NC(=O)NC(C)CCc2cccn2C)c1C` (configuration not stated), the cytotoxicity at 70.5 h worked out at 5.28%.
As for `Cn1cc(S(=O)(=O)Nc2ccc(Cl)cn2)cc1C(N)=O`, the figure is -3.76%.
With `Cc1ccnc(NS(=O)(=O)c2cc(C(N)=O)n(C)c2)c1` the figure was 0.984%; with `O=C1NCCCCC1NC(=O)C1(c2ccc3c(c2)OCCO3)CCCC1` (configuration not stated), 27.7%.
As to `Cn1cc([C@@H]2CN(S(=O)(=O)c3cccs3)C[C@H]2N)c2ccncc21`, the cytotoxicity at 70.5 h was 4.81%.
As for `Cn1cc([C@@H]2CN(S(=O)(=O)c3ccccc3F)C[C@H]2N)c2ccncc21`, the figure is 19%; as for `Cc1ccc(S(=O)(=O)NC(C)(C)CN)c(F)c1`, -1.04%; as for `CCOc1c(Br)cc(CNCCc2nnc3n2CCCCC3)cc1OC`, -10.5%.
